Assay results: publication PMC7044277 (Nature Communications, 2020)
Several values for one entry are separate records, joined by “and”; a condition that tells them apart may be missing. Identical values can stand only once.

Legend:
Type in all cases: cell-based
Set-up in all cases: GPCRome screening signal at PTGIR / GPCRome screening signal at PTH1R / GPCRome screening signal at PTH2R / GPCRome screening signal at QRFP / GPCRome screening signal at RXFP2 / GPCRome screening signal at RXFP3 / GPCRome screening signal at RXFP4 / GPCRome screening signal at S1PR2 / GPCRome screening signal at S1PR3 / GPCRome screening signal at S1PR4 / GPCRome screening signal at S1PR5 / GPCRome screening signal at SCTR / GPCRome screening signal at SSTR2 / GPCRome screening signal at SSSTR / GPCRome screening signal at SSTR4 / GPCRome screening signal at SSTR5 / GPCRome screening signal at SUCNR1 / GPCRome screening signal at TA1 / GPCRome screening signal at TAAR2 / GPCRome screening signal at TAAR5 / GPCRome screening signal at TAAR6 / GPCRome screening signal at TAAR8 / GPCRome screening signal at TACR1 / GPCRome screening signal at TACR2 / GPCRome screening signal at TACR3 / GPCRome screening signal at TBXA2R / GPCRome screening signal at TSHR / GPCRome screening signal at UTS2R / GPCRome screening signal at VIPR2 / GPCRome screening signal at GPR68 no V2 Tail / GPCRome screening signal at GRM2 / GPCRome screening signal at GRM3: reference not given here
320 non-olfactory GPCRs [1] = molecular target: T1, 320 non-olfactory GPCRs (Homo sapiens, UniProt Q9HBX9); details: receptor RXFP1
T1 construct: expressed in transfected cells; host or cells: HTLA cells
T1 sequence (Q9HBX9 whole entry): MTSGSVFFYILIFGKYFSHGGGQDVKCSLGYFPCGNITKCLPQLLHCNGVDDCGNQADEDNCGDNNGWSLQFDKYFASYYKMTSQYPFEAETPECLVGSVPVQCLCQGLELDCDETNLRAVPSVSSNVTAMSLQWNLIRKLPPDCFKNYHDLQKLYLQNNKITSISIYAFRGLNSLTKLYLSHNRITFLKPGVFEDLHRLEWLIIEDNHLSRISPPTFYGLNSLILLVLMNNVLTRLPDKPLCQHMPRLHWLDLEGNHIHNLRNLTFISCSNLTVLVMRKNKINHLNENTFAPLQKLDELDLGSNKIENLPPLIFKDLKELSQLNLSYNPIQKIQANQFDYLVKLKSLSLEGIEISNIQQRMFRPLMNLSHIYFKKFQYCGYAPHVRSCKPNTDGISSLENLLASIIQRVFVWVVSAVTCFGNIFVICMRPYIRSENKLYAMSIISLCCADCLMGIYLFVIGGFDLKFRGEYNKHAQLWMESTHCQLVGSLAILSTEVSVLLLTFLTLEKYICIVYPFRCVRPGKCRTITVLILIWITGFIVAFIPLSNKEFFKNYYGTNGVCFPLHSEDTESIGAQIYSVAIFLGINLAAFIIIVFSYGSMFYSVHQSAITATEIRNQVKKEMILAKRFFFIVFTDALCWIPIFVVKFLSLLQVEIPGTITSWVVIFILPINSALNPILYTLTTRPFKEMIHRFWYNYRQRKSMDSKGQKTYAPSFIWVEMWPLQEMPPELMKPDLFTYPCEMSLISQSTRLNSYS

320 non-olfactory GPCRs [2] = molecular target: T2, 320 non-olfactory GPCRs (Homo sapiens, UniProt Q969N4); details: receptor TAAR8
T2 construct: expressed in transfected cells; host or cells: HTLA cells
T2 sequence (Q969N4 whole entry): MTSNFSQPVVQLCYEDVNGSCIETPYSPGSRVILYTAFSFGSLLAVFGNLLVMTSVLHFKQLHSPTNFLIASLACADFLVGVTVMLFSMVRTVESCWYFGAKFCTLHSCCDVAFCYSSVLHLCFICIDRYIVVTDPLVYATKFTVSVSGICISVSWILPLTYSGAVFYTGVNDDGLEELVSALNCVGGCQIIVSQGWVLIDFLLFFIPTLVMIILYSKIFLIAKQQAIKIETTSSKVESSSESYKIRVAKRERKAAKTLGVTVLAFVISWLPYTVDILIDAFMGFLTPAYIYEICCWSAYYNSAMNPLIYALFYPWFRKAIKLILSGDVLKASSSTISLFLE

320 non-olfactory GPCRs [3] = molecular target: T3, 320 non-olfactory GPCRs (Homo sapiens, UniProt P21452); details: receptor TACR2
T3 construct: expressed in transfected cells; host or cells: HTLA cells
T3 sequence (P21452 whole entry): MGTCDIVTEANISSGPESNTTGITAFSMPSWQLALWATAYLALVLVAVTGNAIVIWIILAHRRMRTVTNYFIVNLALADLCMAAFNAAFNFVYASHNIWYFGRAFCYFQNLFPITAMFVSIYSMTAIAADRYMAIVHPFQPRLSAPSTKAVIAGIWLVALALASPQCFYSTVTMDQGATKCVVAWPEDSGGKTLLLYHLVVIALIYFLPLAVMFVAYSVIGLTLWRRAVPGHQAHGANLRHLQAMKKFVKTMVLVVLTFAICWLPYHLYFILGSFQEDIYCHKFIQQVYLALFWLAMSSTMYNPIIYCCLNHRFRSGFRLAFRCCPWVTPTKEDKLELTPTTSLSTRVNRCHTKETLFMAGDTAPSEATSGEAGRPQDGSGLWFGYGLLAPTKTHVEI

320 non-olfactory GPCRs [4] = molecular target: T4, 320 non-olfactory GPCRs (Homo sapiens, UniProt Q8TDU9); details: receptor RXFP4
T4 construct: expressed in transfected cells; host or cells: HTLA cells
T4 sequence (Q8TDU9 whole entry): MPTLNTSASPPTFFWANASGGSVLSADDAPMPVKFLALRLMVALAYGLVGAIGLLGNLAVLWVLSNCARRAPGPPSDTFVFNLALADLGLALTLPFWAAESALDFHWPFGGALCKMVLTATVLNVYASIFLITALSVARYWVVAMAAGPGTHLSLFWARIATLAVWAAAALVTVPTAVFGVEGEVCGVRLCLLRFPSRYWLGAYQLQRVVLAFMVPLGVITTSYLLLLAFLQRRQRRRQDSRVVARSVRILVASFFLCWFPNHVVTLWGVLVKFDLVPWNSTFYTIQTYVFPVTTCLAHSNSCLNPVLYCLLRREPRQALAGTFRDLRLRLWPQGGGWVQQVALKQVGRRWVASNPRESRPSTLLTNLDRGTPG

[5] = Fig_5f, single replicate values
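Wherever GPCRome agonism screen response is given: fold over basal response of each receptor without drug.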

| SMILES | GPCRome screening signal at RXFP1 (320 non-olfactory GPCRs [1]; [5]) | GPCRome screening signal at TAAR8 (320 non-olfactory GPCRs [2]; [5]) | GPCRome screening signal at TACR2 (320 non-olfactory GPCRs [3]; [5]) | GPCRome screening signal at RXFP4 (320 non-olfactory GPCRs [4]; [5]) | GPCRome agonism screen response (320 non-olfactory GPCRs [1]; replicate values, Fig_4g) | GPCRome agonism screen response (320 non-olfactory GPCRs [2]; replicate values, Fig_4g) | GPCRome agonism screen response (320 non-olfactory GPCRs [3]; replicate values, Fig_4g) | GPCRome agonism screen response (320 non-olfactory GPCRs [4]; replicate values, Fig_4g) |
| --- | --- | --- | --- | --- | --- | --- | --- | --- |
| CCOc1ccccc1CCC(C)NCC1(O)CCCCC1.Cl (racemic) [Fig_5f] | 1.526 and 1.245 and 1.665 and 0.7058 | 0.6115 and 0.4578 and 0.5144 and 0.5546 | 1.32 and 1.667 and 1.261 and 1.267 | 0.4319 and 1.123 and 0.5997 and 0.5278 |  |  |  |  |
| CCOc1cccc2cc(C(C)NCC3(O)CCCCC3)oc12 (centres unmarked) [O4LE6] |  |  |  |  | 1.294 and 0.8675 and 1.5976 and 1.234 | 0.2595 and 0.5748 and 0.5852 and 0.7484 | 0.5287 and 0.4964 and 0.9933 and 0.8884 | 0.5888 and 1.446 and 0.8124 and 1.384 |
